Data from the kinase profiling compilation of Christmann-Franck et al. (2016).

Columns and labels:
Assay in all cases: KINOMEscan competition binding
Conditions in all cases: compound 10.0 µM
RIOK2 (human) = RIOK2 (human) (UniProt Q9BVS4)
MLTK (human) = MLTK (human) (UniProt Q9NYL2)
DYRK1B (human) = DYRK1B (human) (UniProt Q9Y463)
PIM3 (human) = PIM3 (human) (UniProt Q86V86)
TXK (human) = TXK (human) (UniProt P42681)
PIK3C2B (human) = PIK3C2B (human) (UniProt O00750)
ALK (human) = ALK (human) (UniProt Q9UM73)
NEK9 (human) = NEK9 (human) (UniProt Q8TD19)
ACVR1 (human) = ACVR1 (human) (UniProt Q04771)
TSSK1B (human) = TSSK1B (human) (UniProt Q9BXA7)
CDC42BPG (human) = CDC42BPG (human) (UniProt Q6DT37)
KDR (human) = KDR (human) (UniProt P35968)
EPHB1 (human) = EPHB1 (human) (UniProt P54762)
AKT1 (human) = AKT1 (human) (UniProt P31749)
FGFR2 (human) = FGFR2 (human) (UniProt P21802)
MKNK2 (human) = MKNK2 (human) (UniProt Q9HBH9)
[1] = test system: KIT (human), P10721 [V559D]
ACVR2A (human) = ACVR2A (human) (UniProt P27037)
PTK6 (human) = PTK6 (human) (UniProt Q13882)
MAPK13 (human) = MAPK13 (human) (UniProt O15264)
Chain of MAPK13 (human) (O15264 whole entry, looked up): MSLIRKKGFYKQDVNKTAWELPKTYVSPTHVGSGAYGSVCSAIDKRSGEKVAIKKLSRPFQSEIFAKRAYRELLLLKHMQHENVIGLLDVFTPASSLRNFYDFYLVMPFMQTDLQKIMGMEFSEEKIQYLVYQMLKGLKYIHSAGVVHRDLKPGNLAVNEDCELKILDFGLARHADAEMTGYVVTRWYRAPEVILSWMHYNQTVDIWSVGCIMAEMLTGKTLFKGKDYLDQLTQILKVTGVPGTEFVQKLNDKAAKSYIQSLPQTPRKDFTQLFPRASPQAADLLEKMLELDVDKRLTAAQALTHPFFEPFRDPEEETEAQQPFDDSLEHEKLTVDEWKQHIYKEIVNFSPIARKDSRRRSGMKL

GSK3A (human) = GSK3A (human) (UniProt P49840)
Chain of GSK3A (human) (P49840 whole entry, looked up): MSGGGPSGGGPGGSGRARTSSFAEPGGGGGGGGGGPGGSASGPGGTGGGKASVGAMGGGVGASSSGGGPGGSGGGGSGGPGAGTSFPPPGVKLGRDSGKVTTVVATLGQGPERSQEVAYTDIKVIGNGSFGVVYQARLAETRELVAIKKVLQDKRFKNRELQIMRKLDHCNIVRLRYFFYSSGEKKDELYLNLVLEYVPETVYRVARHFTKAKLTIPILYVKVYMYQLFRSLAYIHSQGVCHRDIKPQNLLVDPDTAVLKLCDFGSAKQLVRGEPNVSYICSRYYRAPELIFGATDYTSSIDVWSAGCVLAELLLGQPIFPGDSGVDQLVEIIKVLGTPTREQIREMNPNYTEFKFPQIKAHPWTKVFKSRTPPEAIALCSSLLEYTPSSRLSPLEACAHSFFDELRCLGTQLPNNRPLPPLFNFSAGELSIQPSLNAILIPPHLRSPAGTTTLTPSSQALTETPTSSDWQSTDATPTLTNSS

MAPK9 (human) = MAPK9 (human) (UniProt P45984)
NTRK1 (human) = NTRK1 (human) (UniProt P04629)
Chain of NTRK1 (human) (P04629 whole entry, looked up): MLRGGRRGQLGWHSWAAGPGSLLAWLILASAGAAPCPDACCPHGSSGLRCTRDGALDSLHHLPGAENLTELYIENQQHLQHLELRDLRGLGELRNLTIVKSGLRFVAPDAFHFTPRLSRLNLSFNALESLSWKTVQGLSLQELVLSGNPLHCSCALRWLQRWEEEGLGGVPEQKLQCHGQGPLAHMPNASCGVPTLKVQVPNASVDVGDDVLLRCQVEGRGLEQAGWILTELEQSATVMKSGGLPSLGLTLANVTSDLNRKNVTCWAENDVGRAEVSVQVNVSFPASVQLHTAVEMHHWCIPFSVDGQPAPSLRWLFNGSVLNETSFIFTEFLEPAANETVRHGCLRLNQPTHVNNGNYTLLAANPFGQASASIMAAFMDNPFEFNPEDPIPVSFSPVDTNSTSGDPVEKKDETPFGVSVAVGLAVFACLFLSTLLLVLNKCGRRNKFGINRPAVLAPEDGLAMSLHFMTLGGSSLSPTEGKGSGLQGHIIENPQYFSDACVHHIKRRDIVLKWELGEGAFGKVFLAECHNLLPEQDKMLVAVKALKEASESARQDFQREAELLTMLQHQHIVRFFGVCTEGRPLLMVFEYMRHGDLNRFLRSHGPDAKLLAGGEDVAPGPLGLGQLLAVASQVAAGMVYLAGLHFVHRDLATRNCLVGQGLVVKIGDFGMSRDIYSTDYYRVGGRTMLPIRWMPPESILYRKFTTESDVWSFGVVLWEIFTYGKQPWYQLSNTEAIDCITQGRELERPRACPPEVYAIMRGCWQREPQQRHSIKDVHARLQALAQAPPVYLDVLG

RIPK4 (human) = RIPK4 (human) (UniProt P57078)
MAPK10 (human) = MAPK10 (human) (UniProt P53779)
TAOK1 (human) = TAOK1 (human) (UniProt Q7L7X3)
Chain of TAOK1 (human) (Q7L7X3 whole entry, looked up): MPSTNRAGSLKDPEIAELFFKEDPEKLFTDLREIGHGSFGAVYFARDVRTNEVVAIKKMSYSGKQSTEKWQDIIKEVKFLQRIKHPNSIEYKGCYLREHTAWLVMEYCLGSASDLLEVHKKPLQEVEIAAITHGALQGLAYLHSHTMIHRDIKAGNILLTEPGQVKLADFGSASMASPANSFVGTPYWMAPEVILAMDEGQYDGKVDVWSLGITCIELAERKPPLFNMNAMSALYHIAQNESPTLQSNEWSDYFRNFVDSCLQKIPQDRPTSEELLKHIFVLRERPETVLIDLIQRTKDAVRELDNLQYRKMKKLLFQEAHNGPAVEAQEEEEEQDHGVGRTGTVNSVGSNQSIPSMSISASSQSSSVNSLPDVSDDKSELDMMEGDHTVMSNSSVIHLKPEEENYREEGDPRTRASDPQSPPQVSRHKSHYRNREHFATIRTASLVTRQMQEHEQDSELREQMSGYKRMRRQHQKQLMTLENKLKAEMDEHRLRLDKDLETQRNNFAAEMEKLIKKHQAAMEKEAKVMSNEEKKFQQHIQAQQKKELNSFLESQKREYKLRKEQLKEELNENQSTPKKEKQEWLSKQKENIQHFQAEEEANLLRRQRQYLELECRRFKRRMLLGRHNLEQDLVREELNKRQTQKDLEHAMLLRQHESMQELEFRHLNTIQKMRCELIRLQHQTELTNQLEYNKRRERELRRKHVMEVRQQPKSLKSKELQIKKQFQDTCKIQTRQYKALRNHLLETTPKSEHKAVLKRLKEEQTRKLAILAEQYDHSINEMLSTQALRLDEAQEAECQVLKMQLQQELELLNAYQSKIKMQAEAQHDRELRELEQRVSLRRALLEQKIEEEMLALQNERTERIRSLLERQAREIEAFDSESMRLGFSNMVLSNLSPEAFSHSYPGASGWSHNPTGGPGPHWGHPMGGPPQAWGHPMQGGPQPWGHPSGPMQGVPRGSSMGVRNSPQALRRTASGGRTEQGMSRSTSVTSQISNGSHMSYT

YES1 (human) = YES1 (human) (UniProt P07947)
RPS6KA6 KD1 (human) = RPS6KA6 KD1 (human) (UniProt Q9UK32)
Chain of RPS6KA6 KD1 (human) (Q9UK32 whole entry, looked up): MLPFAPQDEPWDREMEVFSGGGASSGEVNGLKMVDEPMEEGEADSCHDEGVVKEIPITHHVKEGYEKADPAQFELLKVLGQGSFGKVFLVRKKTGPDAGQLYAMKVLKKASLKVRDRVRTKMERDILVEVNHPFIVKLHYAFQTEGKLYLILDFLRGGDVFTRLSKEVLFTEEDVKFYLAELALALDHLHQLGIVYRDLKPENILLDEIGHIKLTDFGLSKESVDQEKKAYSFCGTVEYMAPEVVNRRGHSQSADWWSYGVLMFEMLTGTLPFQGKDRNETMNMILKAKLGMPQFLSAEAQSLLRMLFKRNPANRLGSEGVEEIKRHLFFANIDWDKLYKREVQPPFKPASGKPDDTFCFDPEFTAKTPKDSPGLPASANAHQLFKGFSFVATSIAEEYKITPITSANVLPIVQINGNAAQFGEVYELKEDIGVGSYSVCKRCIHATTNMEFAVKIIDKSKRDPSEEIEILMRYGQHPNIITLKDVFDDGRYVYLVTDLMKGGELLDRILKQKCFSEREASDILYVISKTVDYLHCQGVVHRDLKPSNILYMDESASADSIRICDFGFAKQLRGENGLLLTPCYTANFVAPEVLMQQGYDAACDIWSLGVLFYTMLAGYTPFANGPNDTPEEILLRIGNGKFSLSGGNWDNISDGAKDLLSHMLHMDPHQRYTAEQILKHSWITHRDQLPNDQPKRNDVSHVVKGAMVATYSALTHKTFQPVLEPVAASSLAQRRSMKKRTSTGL

CHEK2 (human) = CHEK2 (human) (UniProt O96017)
AURKC (human) = AURKC (human) (UniProt Q9UQB9)
MAP4K4 (human) = MAP4K4 (human) (UniProt O95819)
NEK6 (human) = NEK6 (human) (UniProt Q9HC98)
MARK3 (human) = MARK3 (human) (UniProt P27448)
CAMK1G (human) = CAMK1G (human) (UniProt Q96NX5)
NTRK2 (human) = NTRK2 (human) (UniProt Q16620)
IGF1R (human) = IGF1R (human) (UniProt P08069)
EPHA5 (human) = EPHA5 (human) (UniProt P54756)
SRPK3 (human) = SRPK3 (human) (UniProt Q9UPE1)
PIK3CB (human) = PIK3CB (human) (UniProt P42338)
Chain of PIK3CB (human) (P42338 whole entry, looked up): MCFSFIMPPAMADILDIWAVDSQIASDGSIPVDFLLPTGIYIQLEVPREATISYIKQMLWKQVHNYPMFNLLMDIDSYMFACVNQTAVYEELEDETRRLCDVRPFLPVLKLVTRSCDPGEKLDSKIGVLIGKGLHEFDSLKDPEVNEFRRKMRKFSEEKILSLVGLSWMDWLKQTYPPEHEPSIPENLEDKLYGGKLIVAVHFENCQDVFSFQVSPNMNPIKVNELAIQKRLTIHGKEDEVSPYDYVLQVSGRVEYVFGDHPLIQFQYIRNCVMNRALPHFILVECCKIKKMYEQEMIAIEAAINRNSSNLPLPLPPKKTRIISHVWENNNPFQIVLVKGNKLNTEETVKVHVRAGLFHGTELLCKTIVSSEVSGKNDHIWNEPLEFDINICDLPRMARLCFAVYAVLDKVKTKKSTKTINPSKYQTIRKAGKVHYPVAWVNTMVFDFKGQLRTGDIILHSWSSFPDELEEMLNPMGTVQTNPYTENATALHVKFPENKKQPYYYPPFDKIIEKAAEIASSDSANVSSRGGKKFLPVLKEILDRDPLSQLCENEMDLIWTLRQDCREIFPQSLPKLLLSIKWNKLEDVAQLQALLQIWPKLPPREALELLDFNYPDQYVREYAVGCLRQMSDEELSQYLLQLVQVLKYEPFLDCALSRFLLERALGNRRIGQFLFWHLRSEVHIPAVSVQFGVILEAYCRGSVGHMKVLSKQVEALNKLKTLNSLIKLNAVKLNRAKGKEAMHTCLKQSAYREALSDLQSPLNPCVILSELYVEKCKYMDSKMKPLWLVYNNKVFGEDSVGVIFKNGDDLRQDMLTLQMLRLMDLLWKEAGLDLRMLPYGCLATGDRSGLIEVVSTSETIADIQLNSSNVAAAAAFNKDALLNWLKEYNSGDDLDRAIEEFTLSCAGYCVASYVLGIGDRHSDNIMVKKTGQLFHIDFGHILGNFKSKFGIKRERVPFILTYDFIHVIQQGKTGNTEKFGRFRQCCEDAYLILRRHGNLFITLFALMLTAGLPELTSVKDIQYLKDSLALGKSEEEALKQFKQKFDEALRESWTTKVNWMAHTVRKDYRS

WEE2 (human) = WEE2 (human) (UniProt P0C1S8)
Chain of WEE2 (human) (P0C1S8 whole entry, looked up): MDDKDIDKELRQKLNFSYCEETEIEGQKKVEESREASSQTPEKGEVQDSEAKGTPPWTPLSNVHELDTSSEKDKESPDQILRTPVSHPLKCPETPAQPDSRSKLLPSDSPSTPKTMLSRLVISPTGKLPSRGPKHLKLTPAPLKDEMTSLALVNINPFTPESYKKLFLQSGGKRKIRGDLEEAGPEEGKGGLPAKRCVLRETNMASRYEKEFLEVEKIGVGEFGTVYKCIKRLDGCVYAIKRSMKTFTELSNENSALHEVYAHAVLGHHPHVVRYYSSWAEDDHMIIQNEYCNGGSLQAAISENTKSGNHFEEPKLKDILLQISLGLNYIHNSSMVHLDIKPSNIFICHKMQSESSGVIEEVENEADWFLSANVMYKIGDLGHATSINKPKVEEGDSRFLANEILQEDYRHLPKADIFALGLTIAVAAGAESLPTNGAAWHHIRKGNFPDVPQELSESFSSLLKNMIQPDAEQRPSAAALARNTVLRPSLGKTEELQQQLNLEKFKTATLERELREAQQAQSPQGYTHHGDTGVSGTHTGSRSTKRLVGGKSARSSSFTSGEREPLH

Row | Structure (SMILES) | kinase still bound, per cent of control (RIOK2 (human)) [%] | kinase still bound, per cent of control (MLTK (human)) [%] | kinase still bound, per cent of control (DYRK1B (human)) [%] | kinase still bound, per cent of control (PIM3 (human)) [%] | kinase still bound, per cent of control (TXK (human)) [%] | kinase still bound, per cent of control (PIK3C2B (human)) [%] | kinase still bound, per cent of control (ALK (human)) [%] | kinase still bound, per cent of control (NEK9 (human)) [%] | kinase still bound, per cent of control (ACVR1 (human)) [%] | kinase still bound, per cent of control (TSSK1B (human)) [%] | kinase still bound, per cent of control (CDC42BPG (human)) [%] | kinase still bound, per cent of control (KDR (human)) [%] | kinase still bound, per cent of control (EPHB1 (human)) [%] | kinase still bound, per cent of control (AKT1 (human)) [%] | kinase still bound, per cent of control (FGFR2 (human)) [%] | kinase still bound, per cent of control (MKNK2 (human)) [%] | kinase still bound, per cent of control [1] [%] | kinase still bound, per cent of control (ACVR2A (human)) [%] | kinase still bound, per cent of control (PTK6 (human)) [%] | kinase still bound, per cent of control (MAPK13 (human)) [%] | other results
1 | Cc1ccc2nc(NCCN)c3ncc(C)n3c2c1 | 79 | 96 | 85 | 92 | 90 | 100 | 100 | 100 | 100 | 100 | 94 | 100 | 100 | 100 | 100 | 90 | 23 | 92 | 99 | 100 | kinase still bound, per cent of control (GSK3A (human)): 100%; kinase still bound, per cent of control (MAPK9 (human)): 44%; kinase still bound, per cent of control (NTRK1 (human)): 100%; kinase still bound, per cent of control (RIPK4 (human)): 100%; kinase still bound, per cent of control (MAPK10 (human)): 100%; kinase still bound, per cent of control (TAOK1 (human)): 66%; kinase still bound, per cent of control (YES1 (human)): 100%; kinase still bound, per cent of control (RPS6KA6 KD1 (human)): 88%; kinase still bound, per cent of control (CHEK2 (human)): 97%; kinase still bound, per cent of control (AURKC (human)): 100%; kinase still bound, per cent of control (MAP4K4 (human)): 100%; kinase still bound, per cent of control (NEK6 (human)): 100%; kinase still bound, per cent of control (MARK3 (human)): 100%; kinase still bound, per cent of control (CAMK1G (human)): 88%; kinase still bound, per cent of control (NTRK2 (human)): 89%; kinase still bound, per cent of control (IGF1R (human)): 90%; kinase still bound, per cent of control (EPHA5 (human)): 100%; kinase still bound, per cent of control (SRPK3 (human)): 100%; kinase still bound, per cent of control (PIK3CB (human)): 88%; kinase still bound, per cent of control (WEE2 (human)): 100%
2 | O=C(NC1CC1)c1cccc(-c2ccc3c(NC(=O)C4CC4)n[nH]c3c2)c1 | 78 | 100 | 89 | 70 | 77 | 83 | 100 | 100 | 48 | 69 | 62 | 93 | 100 | 100 | 100 | 50 | 4.8 | 92 | 97 | 5 | kinase still bound, per cent of control (GSK3A (human)): 84%; kinase still bound, per cent of control (MAPK9 (human)): 50%; kinase still bound, per cent of control (NTRK1 (human)): 60%; kinase still bound, per cent of control (RIPK4 (human)): 84%; kinase still bound, per cent of control (MAPK10 (human)): 61%; kinase still bound, per cent of control (TAOK1 (human)): 4.5%; kinase still bound, per cent of control (YES1 (human)): 92%; kinase still bound, per cent of control (RPS6KA6 KD1 (human)): 91%; kinase still bound, per cent of control (CHEK2 (human)): 100%; kinase still bound, per cent of control (AURKC (human)): 8.6%; kinase still bound, per cent of control (MAP4K4 (human)): 84%; kinase still bound, per cent of control (NEK6 (human)): 90%; kinase still bound, per cent of control (MARK3 (human)): 75%; kinase still bound, per cent of control (CAMK1G (human)): 75%; kinase still bound, per cent of control (NTRK2 (human)): 61%; kinase still bound, per cent of control (IGF1R (human)): 100%; kinase still bound, per cent of control (EPHA5 (human)): 95%; kinase still bound, per cent of control (SRPK3 (human)): 10%; kinase still bound, per cent of control (PIK3CB (human)): 100%; kinase still bound, per cent of control (WEE2 (human)): 100%
3 | C=CC(=O)Nc1cccc(Nc2nc(N[C@H]3CC[C@H](N(C)C)CC3)nc3c2ncn3C(C)C)c1 | 66 | 100 | 49 | 75 | 48 | 100 | 21 | 100 | 100 | 97 | 84 | 96 | 84 | 93 | 62 | 39 | 42 | 97 | 100 | 94 | kinase still bound, per cent of control (GSK3A (human)): 100%; kinase still bound, per cent of control (MAPK9 (human)): 100%; kinase still bound, per cent of control (NTRK1 (human)): 15%; kinase still bound, per cent of control (RIPK4 (human)): 72%; kinase still bound, per cent of control (MAPK10 (human)): 100%; kinase still bound, per cent of control (TAOK1 (human)): 35%; kinase still bound, per cent of control (YES1 (human)): 23%; kinase still bound, per cent of control (RPS6KA6 KD1 (human)): 8.2%; kinase still bound, per cent of control (CHEK2 (human)): 60%; kinase still bound, per cent of control (AURKC (human)): 69%; kinase still bound, per cent of control (MAP4K4 (human)): 53%; kinase still bound, per cent of control (NEK6 (human)): 90%; kinase still bound, per cent of control (MARK3 (human)): 81%; kinase still bound, per cent of control (CAMK1G (human)): 93%; kinase still bound, per cent of control (NTRK2 (human)): 5.3%; kinase still bound, per cent of control (IGF1R (human)): 87%; kinase still bound, per cent of control (EPHA5 (human)): 76%; kinase still bound, per cent of control (SRPK3 (human)): 47%; kinase still bound, per cent of control (PIK3CB (human)): 100%; kinase still bound, per cent of control (WEE2 (human)): 100%
